The source of these data is patent US6288051A, “7 α-(5-methylaminopentyl)-estratrienes, process for their production, pharmaceutical preparations that contain these 7 α(5-methylaminopentyl)-estratrienes as well as their use for the production of pharmaceutical agents” (Schering Aktiengesellschaft, priority 1996, dated 2001).

Where two headings read alike, the source gives them in different places.

One test concerns the target T1, human estrogen receptor (Homo sapiens, UniProt P03372).
T1 construct: expressed in transfected cells; host or cells: HeLa
T1 sequence (P03372 1-595): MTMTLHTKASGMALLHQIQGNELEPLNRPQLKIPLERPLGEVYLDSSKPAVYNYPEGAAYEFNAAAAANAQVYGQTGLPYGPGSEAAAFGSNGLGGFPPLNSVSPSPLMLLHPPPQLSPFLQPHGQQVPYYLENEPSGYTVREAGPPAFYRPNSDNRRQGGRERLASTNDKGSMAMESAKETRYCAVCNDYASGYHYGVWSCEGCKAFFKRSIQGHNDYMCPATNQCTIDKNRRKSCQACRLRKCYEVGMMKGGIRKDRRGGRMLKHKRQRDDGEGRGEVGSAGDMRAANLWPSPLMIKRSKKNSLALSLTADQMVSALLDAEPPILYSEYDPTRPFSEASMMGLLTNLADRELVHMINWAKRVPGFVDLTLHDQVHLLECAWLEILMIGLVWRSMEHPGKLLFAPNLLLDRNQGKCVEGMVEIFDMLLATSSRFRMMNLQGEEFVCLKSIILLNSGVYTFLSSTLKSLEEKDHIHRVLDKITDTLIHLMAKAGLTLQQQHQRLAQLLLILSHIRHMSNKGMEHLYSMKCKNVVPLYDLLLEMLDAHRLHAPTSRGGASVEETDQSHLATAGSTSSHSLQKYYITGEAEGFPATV
Kind of test: Transactivation assay, HeLa cells transfixed with human estrogen receptor-expression vector (HEGO) and Vit-TK-CAT reporter gene. Format: cell-based. The method, then: (§1) The antiestrogenic action of the compounds according to the invention was determined in transactivation assays [Demirpence, E.; Duchesne M.-J.; Badia, E.; Gagne, D. and Pons, M.: MVLN Cells: A Bioluminescent MCF-7-Derived Cell Line to Study the Modulation of Estrogenic Activity; J. Steroid. Molec. Biol. Vol. 46, No. 3, 355-364 (1993) as well as Berry, M.; Metzeger D.; Chambon, P.: Role of the Two Activating Domains of the Estrogen Receptor in the Cell-type and Promoter-context Dependent Agonistic Activity of the Anti-estrogen 4-Hydroxytamoxifen; The EMBO Journal Vol. 9, 2811-2818 (1990)].
The HeLa cells are transfixed with human estrogen receptor-expression vector (HEGO) and Vit-TK-CAT reporter genes, and the MVLN cells are transfixed with reporter gene Vit-TK-LUC: […]
(Reporter assays use an easily measured gene product as a stand-in for the process of interest.)

Another test has as its system MVLN cells. Kind of test: Transactivation assay, MVLN cells transfixed with reporter gene Vit-TK-LUC. Format: cell-based. The conditions noted are these: Homo sapiens, read-out: IC50 [nM] MVLN cells. Here is the method:
as §1
The IC50 values for the new compounds lie in the nanomolar range. […] The HeLa cells are transfixed with human estrogen receptor-expression vector (HEGO) and Vit-TK-CAT reporter genes, and the MVLN cells are transfixed with reporter gene Vit-TK-LUC: […]

Test [1] has as its system DMBA-induced breast cancer. Kind of test: DMBA-induced breast cancer in rats. In kind it is in vivo, rat. The settings on record: oral, 3 mg/kg/day (FIG. 4). The source says: 2.2 DMBA*-induced breast cancer in rats
2.2. Influencing Tumor Growth in the […] Model in Rats (DMBA Tumor Model)
*9,10-Dimethyl-1,2-benanthracene
The growth of the DMBA-induced breast neoplasm of rats is largely dependent on estrogens and prolactin. Active antiestrogens, antigestagens, and aromatase inhibitors result in the inhibition of tumor growth, and substances that have antigonadotropic and androgenic properties also exert a tumor-inhibiting action.
45-47-day-old female rats (Sprague-Dawley, breeder ZiH or Mollegard), 8-10 animals per group.
The animals receive 10 mg of DMBA orally on a one-time basis. Then, the animals are examined weekly by palpation for tumor development. Six to 10 weeks after DNBA treatment, approximately 1 to 10 tumors develop per animal. The tumor size is determined once a week with the aid of a sliding gauge. If at least one tumor has reached a specific size (150 mm^2 of tumor surface area), an ovariectomy is performed on the animals, or the treatment of the animals with the test substance begins. The treatment is carried out in most cases daily for a period of about 28 days (for details on execution, see Test Plan). The tumor size is subsequently determined once a week.
The total tumor size per animal is determined before the beginning of treatment (initial values). For each group, the average values of the percentage changes of the tumor size relative to the initial value are then calculated. In addition, the percentage of animals per group is determined, whose tumors in each case: (1) have totally disappeared (total regression); partially disappeared (partial regression); (3) are unchanged (no change); or (4) are further enlarged (enlargement).
The values that are found are tested for significance in the Dunnett Test and are plotted graphically.

The term IC50 denotes the midpoint of a concentration-inhibition curve. For the molecule `CN(CCCCC[C@@H]1Cc2cc(O)ccc2[C@H]2CC[C@@]3(C)[C@@H](CC[C@]3(C)O)[C@H]12)CCCSCCCC(F)(F)C(F)(F)F` [Example 2, 17α-Methyl-7α-{5-[N-methyl-N-3-(4,4,5,5,5-pentafluoropentyl-thio)-propylamino]-pentyl}-estra-1,3,5(10)-triene-3,17β-diol], the IC50 against human estrogen receptor turned out to be 0.2 nM; with MVLN cells (MVLN), 0.6 nM.
For `C#C[C@]1(O)CC[C@H]2[C@@H]3[C@H](CCCCCN(C)CCCSCCCC(F)(F)C(F)(F)F)Cc4cc(O)ccc4[C@H]3CC[C@@]21C` [Example 3, 17α-Ethinyl-7α-{5-[N-methyl-N-3-(4,4,5,5,5-pentafluoropentylthio)-propylamino]-pentyl}-estra-1,3,5(10)-triene-3,17β-diol], the IC50 at human estrogen receptor was 1 nM; in the test on MVLN cells (MVLN) it was 0.6 nM.
Turning to `CN(CCCCC[C@@H]1Cc2cc(O)ccc2[C@H]2CC[C@]3(C)[C@@H](O)CC[C@H]3[C@H]12)CCS(=O)(=O)CCCC(F)(F)C(F)(F)F` [Example 4, 7α-{5-[N-Methyl-N-2-(4,4,5,5,5-pentafluoropentanesulfonyl)-ethylamino]-pentyl}-estra-1,3,5(10)-triene-3,17β-diol], the IC50 at human estrogen receptor amounted to 0.16 nM; with MVLN cells (MVLN) it was 1.3 nM.
On to `CN(CCCCC[C@@H]1Cc2cc(O)ccc2[C@H]2CC[C@]3(C)[C@@H](O)CC[C@H]3[C@H]12)CCCS(=O)(=O)CCCC(F)(F)C(F)(F)F` [Example 5, 7α-{5-[N-Methyl-N-3-(4,4,5,5,5-pentafluoropentanesulfonyl)-propylamino]-pentyl}-estra-1,3,5(10)-triene-3,17β-diol], for which the half-maximal inhibitory concentration (IC50) against human estrogen receptor was 0.3 nM; with MVLN cells (MVLN), 0.66 nM.
For the molecule `CN(CCCCC[C@@H]1Cc2cc(O)ccc2[C@H]2CC[C@]3(C)[C@@H](O)CC[C@H]3[C@H]12)CCC[S+]([O-])CCCC(F)(F)C(F)(F)F` (stereo partly drawn) [Example 6, 7α-{5-[N-Methyl-N-3-(4,4,5,5,5-pentafluoropentanesulfinyl)-propylamino]-pentyl}-estra-1,3,5(10)-triene-3,17β-diol], the IC50 came to 0.1 nM on human estrogen receptor and 1 nM in the test with MVLN cells (MVLN).
In the case of `C[C@]12CC[C@@H]3c4ccc(O)cc4C[C@@H](CCCCCCCCC[S+]([O-])CCCC(F)(F)C(F)(F)F)[C@H]3[C@@H]1CC[C@@H]2O` (stereo partly drawn) [Reference, 7α-[9-(4,4,5,5,5-pentafluoropentanesulfinyl)-nonyl]-estra-1,3,5(10)-triene-3,17β-diol, reference compound], the half-inhibitory concentration (IC50) in the test on MVLN cells (MVLN cells, Vit-TK-LUC) stood at 6 nM. Besides, the “inhibition of tumor growth” value in test [1] is listed as “only a slight action”.
